From PubChem BioAssay AID1963970 (Molecular Pharmacology Branch, DTP, NCI, 2024)

Test system: 931267-113-T-J1-PDC multicell spheroid viability
Assay: Anticancer human tumor 931267-113-T-J1-PDC patient-derived colon adenocarcinoma cell line growth inhibition [PI3K]
Conditions: for IC50: curve of first compound; for viability, T/C: stronger effect = lower value
Summary of the method: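 Three cell types, namely tumor cells, endothelial cells and mesenchymal stem cells, formed each spheroid. Combinations with four PI3K inhibitors were screened at clinically achievable concentrations decreasing by half-log, and spheroid viability was recorded.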

[1] = second compound 0.0316 µM, first compound 0.0316 µM
[2] = second compound 0.0316 µM, first compound 0.1 µM
[3] = second compound 0.0316 µM, first compound 0.316 µM
[4] = second compound 0.0316 µM, first compound 1 µM
[5] = second compound 0.0316 µM, first compound 3.16 µM
[6] = second compound 0.0316 µM, first compound 10 µM
[7] = second compound 0.1 µM, first compound 0.0316 µM
[8] = second compound 0.1 µM, first compound 0.1 µM
[9] = second compound 0.1 µM, first compound 0.316 µM
[10] = second compound 0.1 µM, first compound 1 µM
[11] = second compound 0.1 µM, first compound 3.16 µM
[12] = second compound 0.1 µM, first compound 10 µM
[13] = second compound 0.316 µM, first compound 0.0316 µM
[14] = second compound 0.316 µM, first compound 0.1 µM
[15] = second compound 0.316 µM, first compound 0.316 µM
[16] = second compound 0.316 µM, first compound 1 µM
[17] = second compound 0.316 µM, first compound 3.16 µM
[18] = second compound 0.316 µM, first compound 10 µM
[19] = second compound 1 µM, first compound 0.0316 µM
[20] = second compound 1 µM, first compound 0.1 µM
[21] = second compound 1 µM, first compound 0.316 µM
[22] = second compound 1 µM, first compound 1 µM
[23] = second compound 1 µM, first compound 3.16 µM
[24] = second compound 1 µM, first compound 10 µM
[25] = second compound 3.16 µM, first compound 0.0316 µM
[26] = second compound 3.16 µM, first compound 0.1 µM
[27] = second compound 3.16 µM, first compound 0.316 µM
[28] = second compound 3.16 µM, first compound 1 µM
[29] = second compound 3.16 µM, first compound 3.16 µM
[30] = second compound 3.16 µM, first compound 10 µM
[31] = second compound 10 µM, first compound 0.0316 µM
[32] = second compound 10 µM, first compound 0.1 µM
[33] = second compound 10 µM, first compound 0.316 µM
[34] = second compound 10 µM, first compound 1 µM
[35] = second compound 10 µM, first compound 3.16 µM
[36] = second compound 10 µM, first compound 10 µM
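Note: viability read 7 days after compound addition.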

CNC(=O)c1ccc(N2C(=S)N(c3ccc(C#N)c(C(F)(F)F)c3)C(=O)C2(C)C)cc1F + COc1c(OCCCN2CCOCC2)ccc2c3n(c(=NC(=O)c4cnc(N)nc4)nc12)CCN3
IC50 (second compound 0.00316 µM): > 10 µM | IC50 (second compound 0.01 µM): > 10 µM | IC50 (second compound 0.0316 µM): > 10 µM | IC50 (second compound 0.1 µM): > 10 µM | IC50 (second compound 0.316 µM): 1.56 µM | IC50 (second compound 1 µM): < 0.0316 µM | viability, T/C (second compound 0.00316 µM, first compound 0.0316 µM): 109% | viability, T/C (second compound 0.00316 µM, first compound 0.1 µM): 107% | viability, T/C (second compound 0.00316 µM, first compound 0.316 µM): 99.3% | viability, T/C (second compound 0.00316 µM, first compound 1 µM): 101% | viability, T/C (second compound 0.00316 µM, first compound 3.16 µM): 104% | viability, T/C (second compound 0.00316 µM, first compound 10 µM): 104% | viability, T/C (second compound 0.01 µM, first compound 0.0316 µM): 105% | viability, T/C (second compound 0.01 µM, first compound 0.1 µM): 93.5% | viability, T/C (second compound 0.01 µM, first compound 0.316 µM): 102% | viability, T/C (second compound 0.01 µM, first compound 1 µM): 92% | viability, T/C (second compound 0.01 µM, first compound 3.16 µM): 100% | viability, T/C (second compound 0.01 µM, first compound 10 µM): 94.2% | viability, T/C [1]: 85.2% | viability, T/C [2]: 80.7% | viability, T/C [3]: 85.7% | viability, T/C [4]: 86.8% | viability, T/C [5]: 93.2% | viability, T/C [6]: 74.4% | viability, T/C [7]: 70.8% | viability, T/C [8]: 68.5% | viability, T/C [9]: 75.7% | viability, T/C [10]: 68.5% | viability, T/C [11]: 69.1% | viability, T/C [12]: 57.8% | viability, T/C [13]: 51% | viability, T/C [14]: 55.9% | viability, T/C [15]: 53.9% | viability, T/C [16]: 52% | viability, T/C [17]: 46.4% | viability, T/C [18]: 40.8% | viability, T/C [19]: 36.4% | viability, T/C [20]: 38.4% | viability, T/C [21]: 39.3% | viability, T/C [22]: 34.2% | viability, T/C [23]: 36.1% | viability, T/C [24]: 30.1%

CC1(C)CCC(Nc2ncc(C(F)(F)F)c(-c3c[nH]c4c(P(C)(C)=O)c(C#N)ccc34)n2)CN1 (stereo unspecified) + CC(Nc1ncnc2nc[nH]c12)c1cc2cccc(Cl)c2c(=O)n1-c1ccccc1
IC50 (second compound 0.0316 µM): > 10 µM | IC50 (second compound 0.1 µM): > 10 µM | IC50 (second compound 0.316 µM): > 10 µM | IC50 (second compound 1 µM): > 10 µM | IC50 (second compound 3.16 µM): > 10 µM | IC50 (second compound 10 µM): > 10 µM | viability, T/C [1]: 107% | viability, T/C [2]: 105% | viability, T/C [3]: 97% | viability, T/C [4]: 88.5% | viability, T/C [5]: 90.8% | viability, T/C [6]: 74.1% | viability, T/C [7]: 114% | viability, T/C [8]: 105% | viability, T/C [9]: 93.6% | viability, T/C [10]: 93.1% | viability, T/C [11]: 91.5% | viability, T/C [12]: 81.6% | viability, T/C [13]: 104% | viability, T/C [14]: 104% | viability, T/C [15]: 103% | viability, T/C [16]: 92.8% | viability, T/C [17]: 95.1% | viability, T/C [18]: 67.4% | viability, T/C [19]: 106% | viability, T/C [20]: 100% | viability, T/C [21]: 94.6% | viability, T/C [22]: 82.7% | viability, T/C [23]: 96.5% | viability, T/C [24]: 69.5% | viability, T/C [25]: 106% | viability, T/C [26]: 100% | viability, T/C [27]: 89.4% | viability, T/C [28]: 87% | viability, T/C [29]: 82.6% | viability, T/C [30]: 69.5% | viability, T/C [31]: 92.2% | viability, T/C [32]: 97% | viability, T/C [33]: 80.1% | viability, T/C [34]: 82.5% | viability, T/C [35]: 83.1% | viability, T/C [36]: 56.2%

Cn1ncc(Cl)c1-c1cc(C(=O)NC(CN)Cc2cccc(F)c2)sc1Cl (stereo unspecified) + CC(Nc1ncnc2nc[nH]c12)c1cc2cccc(Cl)c2c(=O)n1-c1ccccc1
IC50 (second compound 0.0316 µM): 6.98 µM | IC50 (second compound 0.1 µM): 8.83 µM | IC50 (second compound 0.316 µM): 6.77 µM | IC50 (second compound 1 µM): 8.02 µM | IC50 (second compound 3.16 µM): 6.2 µM | IC50 (second compound 10 µM): 6 µM | viability, T/C [1]: 100% | viability, T/C [2]: 105% | viability, T/C [3]: 101% | viability, T/C [4]: 86% | viability, T/C [5]: 85.7% | viability, T/C [6]: 35.1% | viability, T/C [7]: 106% | viability, T/C [8]: 119% | viability, T/C [9]: 96% | viability, T/C [10]: 91.4% | viability, T/C [11]: 86.8% | viability, T/C [12]: 44.5% | viability, T/C [13]: 114% | viability, T/C [14]: 109% | viability, T/C [15]: 99.3% | viability, T/C [16]: 94.5% | viability, T/C [17]: 79% | viability, T/C [18]: 35.7% | viability, T/C [19]: 107% | viability, T/C [20]: 110% | viability, T/C [21]: 92.5% | viability, T/C [22]: 91.2% | viability, T/C [23]: 80.6% | viability, T/C [24]: 42.4% | viability, T/C [25]: 99.7% | viability, T/C [26]: 97.3% | viability, T/C [27]: 97.8% | viability, T/C [28]: 86.9% | viability, T/C [29]: 74.5% | viability, T/C [30]: 33.4% | viability, T/C [31]: 92.9% | viability, T/C [32]: 89.3% | viability, T/C [33]: 90.2% | viability, T/C [34]: 87.3% | viability, T/C [35]: 67.3% | viability, T/C [36]: 36.1%
